Results taken from patent US7968725B2, “Pyridinyl modulators of γ-secretase” (Janssen Pharmaceutica N.V., priority 2008, dated 2011).

Target: T1, γ-secretase (Homo sapiens, UniProt P49768)
T1 construct: endogenous in cells; host or cells: SKNBE2 cells carrying APP 695 wild type
Experiment: Screening for γ-secretase-modulating activity in SKNBE2 cells carrying the APP 695-wild type (assay per Citron et al 1997)
Type: cell-based
Conditions: SKNBE2 cells carrying APP 695-wild type
Method: Screening of the Compounds of the Invention for γ-Secretase-Modulating Activity
Screening was carried out using SKNBE2 cells carrying the APP 695-wild type, grown in DMEM/NUT-mix F12 (HAM) provided by Gibco (cat no. 31330-38) containing 5% Serum/Fe supplemented with 1% non-essential amino acids.
Cells were grown to near confluency.
The screening was performed using the assay as described in Citron et al (1997) Nature Medicine 3: 67.

inhibition at 1 µM [%] | EC50 [µM] | Structure (SMILES)
59 |  | C=C(C)CC(C(=O)O)c1cc(-c2ccc(C(F)(F)F)cc2)nc(-c2ccc(C(F)(F)F)nc2)c1 (stereo not shown) [Example 31, 4-Methyl-2-[6′-trifluoromethyl-6-(4-trifluoromethyl-phenyl)-[2,3′]bipyridinyl-4-yl]-pent-4-enoic acid]
32 |  | CC(C)CC(C(=O)O)c1cc(-c2ccc(C(F)(F)F)cc2)nc(-c2cccc(C(F)(F)F)c2)c1 (stereo not shown) [Example 12, 4-Methyl-2-[2-(3-trifluoromethyl-phenyl)-6-(4-trifluoromethyl-phenyl)-pyridin-4-yl]-pentanoic acid]
14 |  | CC(C)CC(C(=O)O)c1cc(-c2ccc(C(F)(F)F)cc2)nc(-c2cncc3ccccc23)c1 (stereo not shown) [Example 19, 2-[2-Isoquinolin-4-yl-6-(4-trifluoromethyl-phenyl)-pyridin-4-yl]-4-methyl-pentanoic acid]
 | 0.67 | CC(C)CC(C(=O)O)c1cc(-c2ccc(C(F)(F)F)cc2)nc(-c2cnc3ccccc3c2)c1 (stereo not shown) [Example 7, 4-Methyl-2-[2-quinolin-3-yl-6-(4-trifluoromethyl-phenyl)-pyridin-4-yl]-pentanoic acid]
 | 0.26 | CC(C)CC(C(=O)O)c1cc(-c2ccc(C(F)(F)F)cc2)nc(-c2ccc(C(F)(F)F)cc2)c1 (stereo not shown) [Example 1, 2-[2,6-Bis-(4-trifluoromethyl-phenyl)-pyridin-4-yl]-4-methyl-pentanoic acid]
14 |  | C=C(C)CC(C(=O)O)c1cc(-c2ccc(C(F)(F)F)cc2)nc(-c2cncc3ccccc23)c1 (stereo not shown) [Example 18, 2-[2-Isoquinolin-4-yl-6-(4-trifluoromethyl-phenyl)-pyridin-4-yl]-4-methyl-pent-4-enoic acid]
73 |  | CC(C)CC(C(=O)O)c1cc(-c2ccc(Oc3ccccc3)cc2)nc(-c2ccc(C(F)(F)F)cc2)c1 (stereo not shown) [Example 37, 4-Methyl-2-[2-(4-phenoxy-phenyl)-6-(4-trifluoromethyl-phenyl)-pyridin-4-yl]-pentanoic acid]
36 |  | CC(C)CCN(c1ccc(C(F)(F)F)cc1)c1cc(CC(=O)O)cc(-c2ccc(C(F)(F)F)cc2)n1 [Example 42, [2-[(3-Methyl-butyl)-(4-trifluoromethyl-phenyl)-amino]-6-(4-trifluoromethyl-phenyl)-pyridin-4-yl]-acetic acid]
57 |  | CC(C)CC(C(=O)O)c1cc(-c2ccc(C(F)(F)F)cc2)nc(-c2cc3ccccc3s2)c1 (stereo not shown) [Example 29, 2-[2-Benzo[b]thiophen-2-yl-6-(4-trifluoromethyl-phenyl)-pyridin-4-yl]-4-methyl-pentanoic acid]
12 |  | CC(C)CC(C(=O)O)c1cc(-c2ccc(C(F)(F)F)cc2)nc(-c2cccc(F)c2F)c1 (stereo not shown) [Example 21, 2-[2-(2,3-Difluoro-phenyl)-6-(4-trifluoromethyl-phenyl)-pyridin-4-yl]-4-methyl-pentanoic acid]
22 |  | C=C(C)CC(C(=O)O)c1cc(-c2ccc(C(F)(F)F)cc2)nc(-c2cc(F)ccc2F)c1 (stereo not shown) [Example 24, 2-[2-(2,5-Difluoro-phenyl)-6-(4-trifluoromethyl-phenyl)-pyridin-4-yl]-4-methyl-pent-4-enoic acid]
64 |  | CC(C)CC(C(=O)O)c1cc(-c2ccc(C(F)(F)F)cc2)nc(-c2ccc(C(F)(F)F)cc2C(F)(F)F)c1 (stereo not shown) [Example 17, 2-[2-(2,4-Bis-trifluoromethyl-phenyl)-6-(4-trifluoromethyl-phenyl)-pyridin-4-yl]-4-methyl-pentanoic acid]
0 |  | C=C(C)CC(C(=O)O)c1cc(-c2ccc(C(F)(F)F)cc2)nc(-c2ccc(F)cc2F)c1 (stereo not shown) [Example 23, 2-[2-(2,4-Difluoro-phenyl)-6-(4-trifluoromethyl-phenyl)-pyridin-4-yl]-4-methyl-pent-4-enoic acid]
